# Measurements from patent US9522881B2, “Hydroxyindole carboxylic acid based inhibitors for oncogenic Src homology-2 domain containing protein tyrosine phosphatase-2 (SHP2)” (Indiana University Research and Technology Corporation, priority 2013, dated 2016).
# How the values were obtained:
# [1] = system: 32D myeloid cells bearing KITD814V; assay: Proliferation (thymidine incorporation) of 32D myeloid cells bearing KITD814V; assay type: cell-based
# Method: (§1) FIG. 8A is a graph depicting 32D myeloid cells bearing wild-type (WT) KIT or KITD814V that were starved of serum and growth factors for 6 hours and subjected to proliferation assay in the presence or absence of the indicated concentration of II-B08 or 11a-1 as analyzed in Example 6. Assay was performed in the presence of IL-3 (10 ng/mL) for cells bearing WT KIT and in the absence of growth factors for cells bearing oncogenic KITD814V. Bars denote the mean thymidine incorporation (CPM±SEM) consolidated from four independent experiments performed in triplicate. *p<0.05.
# (§2) To further determine the efficacy of compound 11a-1, the growth of oncogenic KITD814V bearing 32D myeloid cells in the presence of II-B08 and 11a-1 were compared. Specifically, the wild-type (WT) KIT and KITD814V were inserted into the bicistronic retroviral vector, MIEG3, upstream of the internal ribosome entry site (IRES) and the enhanced green fluorescent protein (EGFP) gene as previously described in Mali et al., 2012. Retroviral supernatants for transduction of 32D myeloid cells and primary hematopoietic stem and progenitor cells were generated using Phoenix ecotropic packaging cell line transfected with retroviral vector plasmids using a calcium phosphate transfection kit (Invitrogen, Carlsbad, Calif.). Supernatants were collected 48 hours after transfection and filtered through 0.45 μm membranes. 32D myeloid cells were infected twice at 24-hour intervals with 2 mL high/titer virus supernatant in the presence of 10 ng/mL IL-3 and 8 μg/mL polybrene. Forty-eight hours after infection, 32D cells expressing WT KIT or KITD814V receptors were sorted to homogeneity based on EGFP expression and utilized to perform all of the experiments.
# [2] = system: 32D myeloid cells bearing wild-type (WT) KIT; assay: Proliferation (thymidine incorporation) of 32D myeloid cells bearing WT KIT; assay type: cell-based; conditions: tested concentrations, with IL-3
# Method: as §1
# as §2, with “32D myeloid cells were infected twice at 24-hour intervals with 2 mL high/titer virus supernatant in the presence of 10 ng/mL IL-3 and 8 μg/mL polybrene. Forty-eight hours after infection, 32D cells expressing WT KIT or KITD814V receptors were sorted to homogeneity based on EGFP expression and utilized to perform all of the experiments.” left out
# [3] = system: 32D myeloid cells bearing KITD814V; conditions: previously shown (Mali et al., 2012); cited from earlier work
# hematopoietic progenitor = conditions: cited from earlier work
# leukemic mice = conditions: together with PI3Kinase inhibitor LY294002, compared to either inhibitor alone; cited from earlier work
# [4] = system: growth factor stimulated ERK1/2 activation; conditions: cited from earlier work
compound,measurement,setting,value
Cn1c(-c2ccccc2)c(-c2cn(CCC(=O)Nc3ccc(-c4ccccc4)cc3)nn2)c2cc(C(=O)O)c(O)cc21 [IIB08],ligand independent growth of KITD814V bearing 32D cells,[1]; 1 μM,not at 1 μM concentration
same,ligand independent growth of KITD814V bearing 32D cells,[1]; 5 μM,significant suppression
same,growth of WT KIT bearing 32D cells,[2],no significant suppression
same,oncogenic KITD814V induced ligand independent growth,[3],suppressed
same,hematopoietic progenitor proliferation,hematopoietic progenitor,blocked
same,survival of leukemic mice,leukemic mice,significantly prolonged the survival
same,growth factor stimulated ERK1/2 activation,[4],blocked
